Laboratory results as given in patent US20240287043A1, “KETOAMIDE DERIVATIVE AND APPLICATION THEREOF” (GUANGDONG RAYNOVENT BIOTECH CO., LTD., priority 2021, published 2024).
Read-outs that look alike come from different tables or passages of the source.

Key:
[1] = in vivo; conditions: male, C57BL/6J, mouse
[2] = target: SARS-COV-2 Mpro (Severe acute respiratory syndrome coronavirus 2, UniProt P0DTD1); assay: In vitro inhibitory activity against Mpro protease of novel coronavirus (fluorescence substrate assay); format: biochemical; conditions: 25 nM Mpro protein, 25 μM substrate
[3] = Cytotoxicity assay in MRC5 cells without viral infection (CellTiter Glo); format: cell-based; conditions: human, no viral infection
Source text: The calculation formulas were as below: […]

[4] = tested on: HCoV OC43; assay: In vitro anti-coronavirus activity using a cytopathic model (CPE, CellTiter Glo); conditions: Betacoronavirus 1, OC43, MRC5, 120 h
[5] = male, C57BL/6J, mouse, in vivo

| SMILES | AUC(0-t) ([1]; iv, 3 mg/kg) [µM·h] | AUC(0-t) ([1]; po, 10 mg/kg) [µM·h] | Tmax ([1]; po, 10 mg/kg) [h] | bioavailability ([1]; po, 10 mg/kg) [%] | half-life ([1]; po, 10 mg/kg) [h] | IC50 [2] [µM] | CC50 at 5 days [3] [µM] | EC50 [4] [µM] | further results |
| --- | --- | --- | --- | --- | --- | --- | --- | --- | --- |
| CC(C)(C)[C@H](NC(=O)C(F)(F)F)C(=O)N1C[C@H]2[C@@H]([C@H]1C(=O)N[C@H](C#N)CC1CCNC1=O)C2(C)C (stereo partly shown) [PF-07321332, reference compound] | 3.33 | 3.58 | 0.292 | 32.7 | 1.1 | – | – | – | Vd ([1]; iv, 3 mg/kg): 0.456 L/kg; clearance ([1]; iv, 3 mg/kg): 30.2 mL/min/kg; half-life ([1]; iv, 3 mg/kg): 0.71 h; Cmax ([1]; po, 10 mg/kg): 2720 nM |
| CC(C)(C)NC(=O)C(=O)[C@H](C[C@@H]1CCNC1=O)NC(=O)[C@@H]1[C@H]2CCC[C@H]2CN1C(=O)[C@@H](NC(=O)C(F)(F)F)C1CCC1 [Compound 4] | – | – | – | – | – | 0.104 | > 10 | 0.823 | – |
| CC(C)(C)NC(=O)C(=O)[C@H](C[C@@H]1CCNC1=O)NC(=O)[C@@H]1[C@H]2CCC[C@H]2CN1C(=O)[C@@H](NC(=O)C(F)(F)F)C1CCCCC1 [Compound 3] | 30.6 | 33 | 1.5 | 32 | 5.4 | 0.025 | > 10 | 0.146 | Cl ([5]; iv, 3 mg/kg): 2.50 mL/min/kg; T1/2 ([5]; iv, 3 mg/kg): 6.24 h; Vdss ([5]; iv, 3 mg/kg): 1.27 L/kg; Cmax ([5]; po, 10 mg/kg): 4810 nM |
| O=C(NC1CCCC1)C(=O)[C@H](C[C@@H]1CCNC1=O)NC(=O)[C@@H]1[C@H]2CCC[C@H]2CN1C(=O)[C@@H](NC(=O)C(F)(F)F)C1CCCCC1 [Compound 1] | 7.79 | 5.7 | 2 | 22 | 2.63 | – | > 10 | 0.259 | Vd ([1]; iv, 3 mg/kg): 1.38 L/kg; clearance ([1]; iv, 3 mg/kg): 10.1 mL/min/kg; concentration at 0.083 h ([1]; iv, 3 mg/kg): 6770 nM; concentration at 0.25 h ([1]; iv, 3 mg/kg): 5530 nM; concentration at 0.5 h ([1]; iv, 3 mg/kg): 3930 nM; concentration at 1 h ([1]; iv, 3 mg/kg): 1960 nM; concentration at 2 h ([1]; iv, 3 mg/kg): 867 nM; concentration at 4 h ([1]; iv, 3 mg/kg): 293 nM; concentration at 8 h ([1]; iv, 3 mg/kg): 89.7 nM; concentration at 24 h ([1]; iv, 3 mg/kg): 6.59 nM; half-life ([1]; iv, 3 mg/kg): 3.8 h; Cmax ([1]; po, 10 mg/kg): 1290 nM; concentration at 0.25 h ([1]; po, 10 mg/kg): 533 nM; concentration at 0.5 h ([1]; po, 10 mg/kg): 706 nM; concentration at 1 h ([1]; po, 10 mg/kg): 952 nM; concentration at 2 h ([1]; po, 10 mg/kg): 1290 nM; concentration at 4 h ([1]; po, 10 mg/kg): 661 nM; concentration at 6 h ([1]; po, 10 mg/kg): 291 nM; concentration at 8 h ([1]; po, 10 mg/kg): 187 nM; concentration at 24 h ([1]; po, 10 mg/kg): 2.69 nM |
| CC(C)(C)NC(=O)C(=O)[C@H](C[C@@H]1CCNC1=O)NC(=O)[C@@H]1[C@H]2CCC[C@H]2CN1C(=O)[C@@H](NC(=O)C(F)(F)F)C1CCCC1 [Compound 5] | – | – | – | – | – | 0.05 | > 10 | 0.368 | – |
| O=C(NCc1ccccc1)C(=O)[C@H](C[C@@H]1CCNC1=O)NC(=O)[C@@H]1[C@H]2CCC[C@H]2CN1C(=O)[C@@H](NC(=O)C(F)(F)F)C1CCCCC1 [Compound 2] | – | – | – | – | – | 0.011 | > 10 | 0.368 | – |
| CC1([C@H](NC(=O)C(F)(F)F)C(=O)N2C[C@@H]3CCC[C@@H]3[C@H]2C(=O)N[C@@H](C[C@@H]2CCNC2=O)C(=O)C(=O)NC2CCCC2)CCCCC1 [Compound 6] | – | – | – | – | – | 0.012 | – | – | – |
